Like-named read-outs stand apart in the source and are kept apart here.
Legend:
human CYP1A2 = target: T1, human CYP1A2 (Homo sapiens, UniProt P05177); assay: biochemical
T1 sequence (P05177 1-516): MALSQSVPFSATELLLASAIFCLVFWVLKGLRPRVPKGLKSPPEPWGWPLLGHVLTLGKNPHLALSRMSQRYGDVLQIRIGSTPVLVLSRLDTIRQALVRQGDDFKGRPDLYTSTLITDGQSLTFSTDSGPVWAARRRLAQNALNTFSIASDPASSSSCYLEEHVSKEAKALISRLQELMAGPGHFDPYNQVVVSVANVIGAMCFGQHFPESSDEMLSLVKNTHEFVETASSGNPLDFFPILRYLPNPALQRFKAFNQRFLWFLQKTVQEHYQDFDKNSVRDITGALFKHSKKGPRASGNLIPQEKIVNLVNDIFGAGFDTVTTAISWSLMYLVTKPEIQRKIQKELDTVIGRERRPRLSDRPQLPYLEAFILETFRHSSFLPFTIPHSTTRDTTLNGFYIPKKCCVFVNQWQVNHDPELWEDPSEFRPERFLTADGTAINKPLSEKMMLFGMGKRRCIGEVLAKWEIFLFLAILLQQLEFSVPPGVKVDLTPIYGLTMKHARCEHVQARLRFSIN

human CYP2C19 [1] = target: T2, human CYP2C19 (Homo sapiens, UniProt P33261)
T2 sequence (P33261 whole entry): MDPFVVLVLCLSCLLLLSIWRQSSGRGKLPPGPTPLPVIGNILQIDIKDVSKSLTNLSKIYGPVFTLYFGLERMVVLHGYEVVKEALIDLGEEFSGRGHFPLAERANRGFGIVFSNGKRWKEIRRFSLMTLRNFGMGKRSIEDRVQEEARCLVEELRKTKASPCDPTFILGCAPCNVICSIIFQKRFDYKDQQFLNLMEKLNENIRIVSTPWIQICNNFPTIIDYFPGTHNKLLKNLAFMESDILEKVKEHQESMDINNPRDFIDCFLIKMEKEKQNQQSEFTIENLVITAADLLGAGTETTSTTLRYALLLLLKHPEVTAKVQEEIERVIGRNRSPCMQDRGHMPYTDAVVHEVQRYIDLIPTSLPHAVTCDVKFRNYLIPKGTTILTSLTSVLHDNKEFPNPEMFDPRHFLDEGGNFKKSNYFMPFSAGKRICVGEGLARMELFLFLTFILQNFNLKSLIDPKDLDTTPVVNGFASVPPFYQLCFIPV

human CYP2D6 = human CYP2D6 (Homo sapiens, UniProt P10635)
human CYP2D6, sequence (P10635 whole entry): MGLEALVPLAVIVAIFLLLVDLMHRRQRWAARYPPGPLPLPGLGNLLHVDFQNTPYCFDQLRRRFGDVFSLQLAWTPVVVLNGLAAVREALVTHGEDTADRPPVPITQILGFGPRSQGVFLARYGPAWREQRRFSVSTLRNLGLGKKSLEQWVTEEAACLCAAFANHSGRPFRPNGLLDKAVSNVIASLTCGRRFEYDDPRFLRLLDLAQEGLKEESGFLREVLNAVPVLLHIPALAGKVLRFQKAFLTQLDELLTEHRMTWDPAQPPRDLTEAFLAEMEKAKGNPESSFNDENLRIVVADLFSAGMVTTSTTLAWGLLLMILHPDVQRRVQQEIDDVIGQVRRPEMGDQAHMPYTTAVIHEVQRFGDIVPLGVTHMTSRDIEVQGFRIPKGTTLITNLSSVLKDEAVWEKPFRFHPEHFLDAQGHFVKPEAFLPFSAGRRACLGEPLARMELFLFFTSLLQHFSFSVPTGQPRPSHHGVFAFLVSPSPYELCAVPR

CYP3A4 = CYP3A4 (Homo sapiens, UniProt P08684); assay: biochemical
CYP3A4, sequence (P08684 whole entry): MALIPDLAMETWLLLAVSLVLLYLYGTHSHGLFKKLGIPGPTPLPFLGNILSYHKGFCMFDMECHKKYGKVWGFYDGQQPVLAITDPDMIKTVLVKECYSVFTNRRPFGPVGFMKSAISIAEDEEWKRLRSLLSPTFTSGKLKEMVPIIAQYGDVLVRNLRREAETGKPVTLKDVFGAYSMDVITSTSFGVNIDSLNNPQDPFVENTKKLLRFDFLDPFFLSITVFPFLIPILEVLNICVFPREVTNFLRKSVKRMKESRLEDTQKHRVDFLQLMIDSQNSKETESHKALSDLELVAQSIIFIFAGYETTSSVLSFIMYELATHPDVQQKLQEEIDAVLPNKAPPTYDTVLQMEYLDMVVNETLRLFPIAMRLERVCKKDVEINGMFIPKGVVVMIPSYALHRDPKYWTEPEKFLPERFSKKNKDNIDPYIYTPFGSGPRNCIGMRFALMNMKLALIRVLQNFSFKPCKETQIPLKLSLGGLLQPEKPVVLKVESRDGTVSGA

human CYP2C9 [2] = target: T3, human CYP2C9 (Homo sapiens, UniProt P11712)
T3 sequence (P11712 whole entry): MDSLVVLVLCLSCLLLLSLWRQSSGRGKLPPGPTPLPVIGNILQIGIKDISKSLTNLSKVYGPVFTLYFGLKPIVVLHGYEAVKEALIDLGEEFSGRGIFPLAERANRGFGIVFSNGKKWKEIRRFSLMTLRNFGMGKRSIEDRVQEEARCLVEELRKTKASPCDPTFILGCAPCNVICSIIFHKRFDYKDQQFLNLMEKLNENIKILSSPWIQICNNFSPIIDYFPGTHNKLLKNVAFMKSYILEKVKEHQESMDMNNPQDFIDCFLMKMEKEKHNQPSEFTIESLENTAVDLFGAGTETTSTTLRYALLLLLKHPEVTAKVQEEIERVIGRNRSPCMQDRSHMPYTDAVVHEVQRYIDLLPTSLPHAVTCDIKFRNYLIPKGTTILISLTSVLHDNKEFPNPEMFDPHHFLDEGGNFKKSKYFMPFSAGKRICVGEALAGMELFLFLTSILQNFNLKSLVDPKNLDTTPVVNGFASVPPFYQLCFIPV

human CYP2C9 [3] = target: T3, human CYP2C9; assay: biochemical
human CYP2C19 [4] = target: T2, human CYP2C19; assay: biochemical
[5] = CYP1A2 AC50 (half-maximal activity concentration)
[6] = CYP3A4 AC50 (half-maximal activity concentration)
[7] = CYP2C9 AC50 (half-maximal activity concentration)
[8] = CYP2C19 AC50 (half-maximal activity concentration)

Row | Compound | AC50 (human CYP1A2) [µM] | CYP2C19 AC50 (half-maximal activity concentration) (human CYP2C19 [1]) | CYP2D6 AC50 (half-maximal activity concentration) (human CYP2D6) | AC50 (CYP3A4) [µM] | CYP2C9 AC50 (half-maximal activity concentration) (human CYP2C9 [2]) | AC50 (human CYP1A2; [5]) [µM] | AC50 (CYP3A4; [6]) [µM] | AC50 (human CYP2C9 [3]; [7]) [µM] | AC50 (human CYP2C19 [4]; [8]) [µM] | AC50 (human CYP2C9 [3]) [µM] | AC50 (human CYP2C19 [4]) [µM]
1 | Clc1nnc(Cl)c2ccccc12 [1,4-Dichlorophthalazine] | 9.06 | Inactive | Inconclusive inhibitor | 5.51 | Inactive | – | – | – | – | – | –
2 | O=[N+]([O-])c1cccc(Cl)c1Cl [2,3-Dichloronitrobenzene] | – | Inactive | Inactive | – | Inconclusive activator | 34.6 | 29.1 | – | – | – | –
3 | O=[N+]([O-])c1c(Cl)cc(Cl)cc1Cl [2,4,6-Trichloronitrobenzene] | – | Inactive | Inactive | – | Inactive | 34.7 | 6.35 | – | – | – | –
4 | O=[N+]([O-])c1ccccc1CCl [2-Nitrobenzyl chloride] | – | Inconclusive inhibitor | Inconclusive inhibitor | – | Inactive | 56.1 | 36.1 | – | – | – | –
5 | O=C(O)c1ccc(Cl)c(Cl)c1 [3,4-Dichlorobenzoic acid] | – | Inconclusive inhibitor | Inactive | – | Inconclusive inhibitor | 59.2 | 59.7 | – | – | – | –
6 | O=C(c1ccccc1)C1CCCCC1 [Cyclohexylphenylketone] | – | – | Inactive | – | – | 37.4 | 29.2 | 47.5 | 44.9 | – | –
7 | CCCCOC(=O)CCCCC(=O)OCCCC [Dibutyl hexanedioate] | 41.7 | – | Inactive | 15.4 | – | – | – | – | – | 16.1 | 57.6
8 | COC(=O)C(C)Oc1ccc(Oc2ccc(Cl)cc2Cl)cc1 (stereo not drawn) [Diclofop-methyl] | – | – | Inconclusive | – | – | 38.5 | 12.8 | 27.5 | 6.41 | – | –
9 | O=C(OCCOCCOC(=O)c1ccccc1)c1ccccc1 [Diethylene glycol dibenzoate] | – | – | Inactive | – | – | 8.29 | 11.4 | 12.7 | 34.1 | – | –
10 | CC(C)OC(=O)c1ccccc1C(=O)OC(C)C [Diisopropyl phthalate] | – | – | Inconclusive inhibitor | – | – | 3.31 | 31.9 | 50.4 | 53.2 | – | –
11 | COC(=O)CCCCCCCCC(=O)OC [Dimethyl decanedioate] | – | – | Inactive | – | – | 40.1 | 38.8 | 50.5 | 64.5 | – | –
12 | O=[N+]([O-])c1cc(C2CCCCC2)c(O)c([N+](=O)[O-])c1 [Dinex] | – | – | Inconclusive inhibitor | – | – | 71.1 | 22.5 | 8.27 | 39.8 | – | –
13 | CCC1OCC(COc2ccc(Oc3ccccc3)cc2)O1 (stereo not drawn) [Diofenolan] | 30.8 | – | Inconclusive inhibitor | 35.7 | – | – | – | – | – | 29.4 | 21
14 | CN(C)C(=O)C(c1ccccc1)c1ccccc1 [Diphenamid] | – | – | Inactive | – | – | 50.2 | 31.2 | 38.4 | 53.7 | – | –
15 | O=C(Oc1ccccc1)c1ccccc1C(=O)Oc1ccccc1 [Diphenyl phthalate] | – | – | Inactive | – | – | 4.94 | 7.65 | 13.7 | 14.2 | – | –
16 | CCCOC(=O)c1ccc(C(=O)OCCC)nc1 [Dipropyl 2,5-pyridinedicarboxylate] | 11.3 | – | Inactive | 31.9 | – | – | – | – | – | 7.68 | 5.97
17 | CCCOC(=O)c1ccccc1C(=O)OCCC [Dipropyl phthalate] | – | – | Inactive | – | – | 2.38 | 9.91 | 30 | 7.01 | – | –
18 | CCOC(=O)Cc1cccc2ccccc12 [Ethyl 1-naphthaleneacetate] | 16.5 | – | Inactive | 27.5 | – | – | – | – | – | 41.5 | 25.5

— paper PMC12155096 (International Journal of Molecular Sciences, 2025)
